Test results as given in US20070059788A1, “Method and apparatus for electrically detecting an adverse effect of a toxic substance on procaryotic cells” (priority 2005, published 2007).

What was measured:
Assay type in all cases: cell-based
[1] = system: E. coli BL21 cells; test: impedance (E′, E″) measurement of cells immobilized on an interdigit electrode chip
Method: After a suspension of E. coli BL21 cells (1×10^10 ells) was mixed with 1 ml of 1.5% agarose, 1 ul of the resulting mixture was laid and immobilized on the surface of a positive dielectrophoresis (“DEP”) 0 chip.
Subsequently, the cells-immobilized chip was soaked in 10 ml of 1 μM KCl solution and its initial dielectric permittivity (E′) and dielectric losses (E″) were measured. […] The chip was then taken out of the 10 ml of 1 μM KCl solution and washed with 1 μM KCl solution three times. After soaking the chip in 10 ml of 1 μM KCl solution, dielectric permittivity (E′) and dielectric losses (E″) were measured.
Control 2 is a case of treating only 1 μM KCl solution to the chip immobilized with E. coli cells, which represents the noise of prokaryotic cells themselves that varies with the passage of time.
In FIGS. 2A to 2C, Line b represents an initial impedance value measured after the cell immobilization, and Line a represents an impedance value measured after treating with a toxic substance or 1 μM KCl solution.

[2] = system: E. coli BL21 cells; test: colony counting of the cells-immobilized chip
Method: (§1) The optical detection method was performed using a Baclight™ Bacterial Membrane Potential Kit (commercially available from by Molecular Probes Inc., U.S.A.) for verification.

[3] = system: E. coli BL21 cells; test: optical detection of cell membrane potential (Baclight Bacterial Membrane Potential Kit)
Method: as §1

Compound	reduction in the cell membrane's impedance (E′) signal ([1]; 20% ethanol (FIG. 2C))	adverse effect by colony counting ([2]; 20% ethanol)	reduction in the cell membrane potential measured by the optical method ([3]; 20% ethanol, compared with untreated control (FIG. 6))	reduction of impedance signal (E″) of the cell membrane ([1]; 5 μM CCCP, compared with the untreated control (FIG. 4C))	change in E′ and E″ signals over the initial impedance value ([1]; 5 μM CCCP, same method as Example 1)	adverse effect by colony counting ([2]; 5 μM CCCP versus untreated control (FIG. 5A))	reduction of cell membrane potential ([3]; 5 μM CCCP, compared with untreated control (FIG. 5B)) [%]
CCO [ethanol]	about 36%	difficult to measure an adverse effect	almost nothing				
carbonyl cyanide m-chloropheoxyhydrazone [CCCP]				about 32%	significant reduction	difficult to measure an adverse effect	10
